Test systems include SF-539 CNS; CCRF-CEM leukemia; MCF7 breast; HT29 colon; HCT-15 colon; OVCAR-4 ovarian; NCI-H460 lung; OVCAR-3 ovarian; SNB-75 CNS; SNB-19 CNS.
Common to all, as to assay: DTP human tumour cell line panel, 48 h

SMILES strings stand for the structures. “And” between values parts separate entries of the source, which are not always exact repeats. Equal entries are not always repeated.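 Exposure lasted 48 hours, with cells grown in 96-well plates and compounds tested at five concentrations. At the GI50, growth is halved. TGI marks complete inhibition of growth.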

Turning to `CC(=O)c1cc2c(o1)C(=O)c1ccccc1C2=O`, the GI50 was 178 nM and 184 nM with SF-539 CNS; 0.403 µM and 1.02 µM with CCRF-CEM leukemia; 167 nM and 171 nM with MCF7 breast; 226 nM and 276 nM in the experiment with HT29 colon; 166 nM and 179 nM with HCT-15 colon; 255 nM and 377 nM in the experiment on OVCAR-4 ovarian. In addition, the GI50 was 210 nM and 194 nM in the experiment with NCI-H460 lung; 218 nM and 225 nM in the experiment with OVCAR-3 ovarian; 181 nM and 195 nM in the experiment on SNB-75 CNS; 222 nM and 267 nM in the experiment with SNB-19 CNS. Further, the concentration for total growth inhibition (TGI) with SF-539 CNS is 317 nM and 328 nM; in the experiment with CCRF-CEM leukemia it was greater than 100 µM; with MCF7 breast it was 394 nM; in the experiment on HT29 colon it was 0.529 µM and 0.756 µM; in the experiment on HCT-15 colon, 365 nM and 398 nM; with OVCAR-4 ovarian it was 0.767 µM and 1.48 µM. In addition, the TGI with NCI-H460 lung is 0.422 µM and 0.375 µM; in the experiment with OVCAR-3 ovarian, 507 nM and 529 nM; in the experiment with SNB-75 CNS it was 328 nM and 376 nM; in the experiment on SNB-19 CNS, 508 nM and 795 nM.

Regarding `Cn1cnc([N+](=O)[O-])c1S(=O)(=O)Oc1ccccc1`, the GI50 is 14000 nM with SF-539 CNS; 3.75 µM in the experiment on CCRF-CEM leukemia; 7820 nM with MCF7 breast; 3140 nM with HT29 colon; 2740 nM in the experiment with HCT-15 colon; 3220 nM in the experiment on OVCAR-4 ovarian. In addition, the GI50 was 23900 nM in the experiment with NCI-H460 lung, 2140 nM in the experiment with OVCAR-3 ovarian, 14900 nM in the experiment on SNB-75 CNS and greater than 100000 nM with SNB-19 CNS. The TGI in the experiment on SF-539 CNS is 29800 nM; with CCRF-CEM leukemia, greater than 100 µM; in the experiment on MCF7 breast, greater than 44300 nM; with HT29 colon it was 8.21 µM; in the experiment on HCT-15 colon, greater than 28400 nM; in the experiment with OVCAR-4 ovarian it was 15.1 µM. Moreover, the total growth inhibition concentration (TGI) is greater than 72.8 µM in the experiment with NCI-H460 lung, 4300 nM in the experiment with OVCAR-3 ovarian, 34900 nM in the experiment with SNB-75 CNS and greater than 100000 nM in the experiment on SNB-19 CNS.

For `O=C1NC(=S)NNC12c1ccccc1-c1ccccc12`, the concentration for total growth inhibition (TGI) was greater than 10000 nM in the experiment with SF-539 CNS; greater than 10 µM in the experiment on CCRF-CEM leukemia; greater than 10000 nM with MCF7 breast; greater than 10 µM in the experiment with HT29 colon; greater than 10000 nM in the experiment on HCT-15 colon; greater than 10 µM in the experiment on OVCAR-4 ovarian. For the same molecule, the TGI in the experiment on NCI-H460 lung is greater than 10 µM; in the experiment with SNB-75 CNS, greater than 10000 nM.

Take `NS(=O)(=O)c1ccc(N(/C=C/C(=O)C(F)(F)F)CC(=O)c2ccc(Cl)cc2)cc1`: the GI50 was 43400 nM with SF-539 CNS; 20.4 µM with CCRF-CEM leukemia; 15800 nM in the experiment on MCF7 breast; 35600 nM with HT29 colon; 35500 nM with HCT-15 colon; 60000 nM in the experiment on OVCAR-4 ovarian. The figures for the GI50 in the experiment on NCI-H460 lung, in the experiment on OVCAR-3 ovarian and in the experiment with SNB-19 CNS were 31800 nM, 31800 nM and 51200 nM, respectively. Further, the TGI in the experiment with SF-539 CNS is greater than 100000 nM; in the experiment on CCRF-CEM leukemia, 44.5 µM; with MCF7 breast, 49700 nM; in the experiment with HT29 colon it was greater than 100 µM; with HCT-15 colon, greater than 100000 nM; with OVCAR-4 ovarian, greater than 100 µM. The total growth inhibition concentration (TGI) with NCI-H460 lung was 89 µM; in the experiment with OVCAR-3 ovarian, greater than 100000 nM; in the experiment with SNB-19 CNS it was greater than 100000 nM.

As for `COc1ccc2[nH]cc(-c3nc(-c4c[nH]c5ncccc45)cs3)c2c1`, the GI50 in the experiment on SF-539 CNS is 4880 nM; in the experiment on CCRF-CEM leukemia, 4.07 µM; in the experiment with MCF7 breast it was 3330 nM; with HCT-15 colon, 2610 nM; with OVCAR-4 ovarian it was 6890 nM; with NCI-H460 lung, 3260 nM. For the same molecule, the results for the GI50 in the experiment with OVCAR-3 ovarian and with SNB-75 CNS were 6040 nM and 2310 nM, respectively. Further, the TGI in the experiment on SF-539 CNS was greater than 100000 nM; in the experiment with CCRF-CEM leukemia it was greater than 100 µM; in the experiment on MCF7 breast it was greater than 100000 nM; in the experiment on HCT-15 colon, greater than 100000 nM; with OVCAR-4 ovarian it was greater than 100 µM; in the experiment on NCI-H460 lung, greater than 100 µM. In addition, the TGI in the experiment with OVCAR-3 ovarian and in the experiment on SNB-75 CNS was greater than 100000 nM throughout.

In the case of `CCSc1[nH]c(Nc2nc(-c3ccccc3)n(-c3ccccc3)n2)c(C(N)=O)c1C(N)=O`, the TGI in the experiment with CCRF-CEM leukemia is greater than 10 µM; in the experiment with MCF7 breast, greater than 10000 nM; with HT29 colon it was greater than 10 µM; in the experiment on HCT-15 colon, greater than 10000 nM; with OVCAR-4 ovarian, greater than 10 µM; with SNB-75 CNS it was greater than 10000 nM.

As to `CC1=CC(=O)[C@@H](O)[C@]2(C)[C@H]3[C@@]4(O)OC[C@]35[C@H]([C@@H](C)[C@H]4O)[C@@H](O)C(=O)O[C@@H]5C[C@@H]12`, the TGI was 261 nM with SF-539 CNS; 1.45 µM with CCRF-CEM leukemia; 546 nM in the experiment with MCF7 breast; 2480 nM in the experiment on HCT-15 colon; 6.66 µM in the experiment on OVCAR-4 ovarian; 4.85 µM in the experiment on NCI-H460 lung. Besides, the figures for the TGI in the experiment with OVCAR-3 ovarian, with SNB-75 CNS and in the experiment on SNB-19 CNS were 2110 nM, 759 nM and 3690 nM, respectively.

With `COC1C(O)=C2C(=O)O/C(C)=C/C=C/C=C/C=C\CC(c3ccccc3)NC(=O)\C=C/C=C\C=C\C=C\[C@@]2(C)[C@@H]1O` (stereo partly drawn), the TGI with SF-539 CNS was 47 nM; in the experiment with CCRF-CEM leukemia, 0.0577 µM; in the experiment with MCF7 breast, 17.5 nM; in the experiment with HT29 colon, 0.0531 µM; with HCT-15 colon, 83.4 nM; in the experiment on OVCAR-4 ovarian, 1.85 µM. For the same molecule, the TGI came to 271 nM with OVCAR-3 ovarian, 50.3 nM in the experiment with SNB-75 CNS and 141 nM with SNB-19 CNS.

Regarding `C[C@H]1NC(=O)C2CCCCN2C(=O)CN(C)C(=O)CNC(=O)C2CCCCN2C(=O)[C@@H](NC(=O)c2nc3ccccc3cc2O)[C@@H](C)NC(=O)C2CCCCN2C(=O)CN(C)C(=O)CNC(=O)[C@@H]2CCCCN2C(=O)C1NC(=O)c1nc2ccccc2cc1O` (stereo partly drawn), the TGI is 698 nM in the experiment on SF-539 CNS; 5.16 µM in the experiment on CCRF-CEM leukemia; greater than 100 µM with HT29 colon; greater than 100000 nM in the experiment with HCT-15 colon; 5.48 µM in the experiment with OVCAR-4 ovarian; greater than 100 µM with NCI-H460 lung. The concentration for total growth inhibition (TGI) in the experiment on OVCAR-3 ovarian came to 773 nM; in the experiment on SNB-75 CNS it was 390 nM; in the experiment on SNB-19 CNS it was 2110 nM.

As to `COc1cc(-c2nn(-c3cccc(NC(=O)Nc4ccc(Cl)c(Cl)c4)c3)cc2-c2ccncc2)ccc1Cl`, the GI50 is 965 nM with SF-539 CNS; 945 nM with MCF7 breast; 1240 nM in the experiment with HT29 colon; 1230 nM in the experiment on HCT-15 colon; 1290 nM with OVCAR-4 ovarian; 1110 nM with NCI-H460 lung. Also, the figures for the GI50 in the experiment with OVCAR-3 ovarian, in the experiment on SNB-75 CNS and with SNB-19 CNS were 697 nM, 1050 nM and 1720 nM, respectively. In addition, the TGI was 3080 nM in the experiment on SF-539 CNS; greater than 50000 nM in the experiment with MCF7 breast; 6.46 µM in the experiment on HT29 colon; greater than 50000 nM with HCT-15 colon; greater than 50 µM with OVCAR-4 ovarian; greater than 50 µM in the experiment with NCI-H460 lung. In addition, the results for the total growth inhibition concentration (TGI) in the experiment with OVCAR-3 ovarian, with SNB-75 CNS and with SNB-19 CNS were 2270 nM, 5170 nM and greater than 50000 nM, respectively.

(Values after PubChem BioAssay (NCI).)
